The NIST ThermoML archive (doi:10.1021/je500381c)

Assay: xn = mol fraction of the nth substance listed
Details: for mass density / viscosity: 100 kPa, Liquid; for mass density: Vibrating tube method; for surface tension liquid-gas: Drop volume

CC12CC3CC(C1)CC(C)(C3)C2 [1,3-dimethyladamantane] + CCCCCCCO
Details	mass density [kg/m3]	surface tension liquid-gas [mN/m]	viscosity [mPa·s]
293.15 K, x2 = 0	901.58	–	3.764
293.15 K, x2 = 0.1001	895.5	–	3.692
293.15 K, x2 = 0.199	889.11	–	3.788
293.15 K, x2 = 0.2998	882.35	–	3.972
293.15 K, x2 = 0.3997	875.32	–	4.181
293.15 K, x2 = 0.4997	867.82	–	4.522
293.15 K, x2 = 0.6002	859.93	–	4.92
293.15 K, x2 = 0.7	851.41	–	5.419
293.15 K, x2 = 0.7996	842.45	–	5.924
293.15 K, x2 = 0.8999	832.71	–	6.447
298.15 K, x2 = 0	898.04	27.88	3.345
298.15 K, x2 = 0.1001	891.87	27.82	3.271
298.15 K, x2 = 0.199	885.48	–	3.342
298.15 K, x2 = 0.1997	–	27.69	–
298.15 K, x2 = 0.2998	878.72	27.48	3.475
298.15 K, x2 = 0.3997	871.68	27.35	3.686
298.15 K, x2 = 0.4997	864.19	27.15	3.909
298.15 K, x2 = 0.6002	856.3	27.02	4.218
298.15 K, x2 = 0.7	847.82	26.79	4.611
298.15 K, x2 = 0.7996	838.88	26.56	5.028
298.15 K, x2 = 0.8999	829.21	26.36	5.454
303.15 K, x2 = 0	894.48	–	3.004
303.15 K, x2 = 0.1001	888.23	–	2.913
303.15 K, x2 = 0.199	881.84	–	2.963
303.15 K, x2 = 0.2998	875.06	–	3.066
303.15 K, x2 = 0.3997	868.01	–	3.238
303.15 K, x2 = 0.4997	860.52	–	3.414
303.15 K, x2 = 0.6002	852.65	–	3.657
303.15 K, x2 = 0.7	844.21	–	3.967
303.15 K, x2 = 0.7996	835.28	–	4.304
303.15 K, x2 = 0.8999	825.66	–	4.649
308.15 K, x2 = 0	890.92	–	2.711
308.15 K, x2 = 0.1001	884.58	–	2.609
308.15 K, x2 = 0.199	878.15	–	2.642
308.15 K, x2 = 0.2998	871.37	–	2.721
308.15 K, x2 = 0.3997	864.33	–	2.862
308.15 K, x2 = 0.4997	856.84	–	3
308.15 K, x2 = 0.6002	848.97	–	3.194
308.15 K, x2 = 0.7	840.56	–	3.439
308.15 K, x2 = 0.7996	831.66	–	3.711
308.15 K, x2 = 0.8999	822.07	–	3.992
313.15 K, x2 = 0	887.35	–	2.458
313.15 K, x2 = 0.1001	880.92	–	2.347
313.15 K, x2 = 0.199	874.46	–	2.366
313.15 K, x2 = 0.2998	867.67	–	2.427
313.15 K, x2 = 0.3997	860.62	–	2.542
313.15 K, x2 = 0.4997	853.13	–	2.653
313.15 K, x2 = 0.6002	845.27	–	2.807
313.15 K, x2 = 0.7	836.88	–	3.001
313.15 K, x2 = 0.7996	828.01	–	3.22
313.15 K, x2 = 0.8999	818.46	–	3.45
318.15 K, x2 = 0	883.77	–	2.237
318.15 K, x2 = 0.1001	877.24	–	2.121
318.15 K, x2 = 0.199	870.75	–	2.129
318.15 K, x2 = 0.2998	863.95	–	2.175
318.15 K, x2 = 0.3997	856.89	–	2.269
318.15 K, x2 = 0.4997	849.4	–	2.359
318.15 K, x2 = 0.6002	841.54	–	2.481
318.15 K, x2 = 0.7	833.18	–	2.636
318.15 K, x2 = 0.7996	824.33	–	2.813
318.15 K, x2 = 0.8999	814.8	–	3.002
323.15 K, x2 = 0	880.19	–	2.045
323.15 K, x2 = 0.1001	873.55	–	1.925
323.15 K, x2 = 0.199	867.02	–	1.925
323.15 K, x2 = 0.2998	860.2	–	1.958
323.15 K, x2 = 0.3997	853.14	–	2.035
323.15 K, x2 = 0.4997	845.65	–	2.107
323.15 K, x2 = 0.6002	837.79	–	2.205
323.15 K, x2 = 0.7	829.46	–	2.329
323.15 K, x2 = 0.7996	820.62	–	2.472
323.15 K, x2 = 0.8999	811.12	–	2.626
328.15 K, x2 = 0	876.6	–	1.876
328.15 K, x2 = 0.1001	869.84	–	1.754
328.15 K, x2 = 0.199	863.27	–	1.745
328.15 K, x2 = 0.2998	856.43	–	1.769
328.15 K, x2 = 0.3997	849.36	–	1.833
328.15 K, x2 = 0.4997	841.86	–	1.891
328.15 K, x2 = 0.6002	834.01	–	1.97
328.15 K, x2 = 0.7	825.68	–	2.069
328.15 K, x2 = 0.7996	816.87	–	2.184
328.15 K, x2 = 0.8999	807.4	–	2.311
333.15 K, x2 = 0	873.01	–	1.728
333.15 K, x2 = 0.1001	866.11	–	1.603
333.15 K, x2 = 0.199	859.5	–	1.589
333.15 K, x2 = 0.2998	852.63	–	1.605
333.15 K, x2 = 0.3997	845.56	–	1.658
333.15 K, x2 = 0.4997	838.05	–	1.704
333.15 K, x2 = 0.6002	830.19	–	1.767
333.15 K, x2 = 0.7	821.88	–	1.847
333.15 K, x2 = 0.7996	813.08	–	1.938
333.15 K, x2 = 0.8999	803.64	–	2.044

CCC12CC3CC(CC(C3)C1)C2 [1-ethyladamantane] + OCC1CCCCC1
Details	mass density [kg/m3]	surface tension liquid-gas [mN/m]	viscosity [mPa·s]
293.15 K, x2 = 0	937.11	–	6.371
293.15 K, x2 = 0.1	936.13	–	6.695
293.15 K, x2 = 0.2002	935.23	–	7.433
293.15 K, x2 = 0.2997	934.37	–	8.368
293.15 K, x2 = 0.3999	933.76	–	9.674
293.15 K, x2 = 0.4998	933.1	–	11.54
293.15 K, x2 = 0.5989	932.54	–	14.09
293.15 K, x2 = 0.7001	931.93	–	17.67
293.15 K, x2 = 0.8023	931.24	–	23.66
293.15 K, x2 = 0.8996	930.57	–	29.61
298.15 K, x2 = 0	933.58	29.87	5.565
298.15 K, x2 = 0.1	932.5	30.21	5.776
298.15 K, x2 = 0.2002	931.58	30.84	6.348
298.15 K, x2 = 0.2997	930.72	30.99	7.083
298.15 K, x2 = 0.3999	930.09	31.23	8.081
298.15 K, x2 = 0.4998	929.43	31.51	9.483
298.15 K, x2 = 0.5989	928.87	31.86	11.38
298.15 K, x2 = 0.7001	928.31	31.98	14.04
298.15 K, x2 = 0.8023	927.68	32.1	18.53
298.15 K, x2 = 0.8996	927	32.21	22.86
303.15 K, x2 = 0	929.99	–	4.903
303.15 K, x2 = 0.1	928.84	–	5.033
303.15 K, x2 = 0.2002	927.89	–	5.484
303.15 K, x2 = 0.2997	927.06	–	6.058
303.15 K, x2 = 0.3999	926.4	–	6.832
303.15 K, x2 = 0.4998	925.74	–	7.675
303.15 K, x2 = 0.5989	925.17	–	9.337
303.15 K, x2 = 0.7001	924.63	–	11.31
303.15 K, x2 = 0.8023	924.04	–	14.75
303.15 K, x2 = 0.8996	923.4	–	18.07
308.15 K, x2 = 0	926.4	–	4.348
308.15 K, x2 = 0.1	925.16	–	4.417
308.15 K, x2 = 0.2002	924.2	–	4.772
308.15 K, x2 = 0.2997	923.39	–	5.224
308.15 K, x2 = 0.3999	922.68	–	5.833
308.15 K, x2 = 0.4998	922.03	–	6.657
308.15 K, x2 = 0.5989	921.45	–	7.748
308.15 K, x2 = 0.7001	920.92	–	9.236
308.15 K, x2 = 0.8023	920.38	–	11.88
308.15 K, x2 = 0.8996	919.77	–	14.39
313.15 K, x2 = 0	922.81	–	3.878
313.15 K, x2 = 0.1	921.48	–	3.897
313.15 K, x2 = 0.2002	920.49	–	4.182
313.15 K, x2 = 0.2997	919.69	–	4.542
313.15 K, x2 = 0.3999	918.95	–	5.016
313.15 K, x2 = 0.4998	918.29	–	5.663
313.15 K, x2 = 0.5989	917.71	–	6.499
313.15 K, x2 = 0.7001	917.19	–	7.629
313.15 K, x2 = 0.8023	916.67	–	9.75
313.15 K, x2 = 0.8996	916.12	–	11.66
318.15 K, x2 = 0	919.21	–	3.478
318.15 K, x2 = 0.1	917.79	–	3.463
318.15 K, x2 = 0.2002	916.77	–	3.688
318.15 K, x2 = 0.2997	915.95	–	3.973
318.15 K, x2 = 0.3999	915.2	–	4.35
318.15 K, x2 = 0.4998	914.53	–	4.857
318.15 K, x2 = 0.5989	913.94	–	5.504
318.15 K, x2 = 0.7001	913.43	–	6.374
318.15 K, x2 = 0.8023	912.93	–	8.051
318.15 K, x2 = 0.8996	912.44	–	9.556
323.15 K, x2 = 0	915.62	–	3.134
323.15 K, x2 = 0.1	914.09	–	3.094
323.15 K, x2 = 0.2002	913.03	–	3.27
323.15 K, x2 = 0.2997	912.19	–	3.497
323.15 K, x2 = 0.3999	911.42	–	3.798
323.15 K, x2 = 0.4998	910.75	–	4.199
323.15 K, x2 = 0.5989	910.15	–	4.707
323.15 K, x2 = 0.7001	909.63	–	5.378
323.15 K, x2 = 0.8023	909.16	–	6.705
323.15 K, x2 = 0.8996	908.7	–	7.906
328.15 K, x2 = 0	912.01	–	2.838
328.15 K, x2 = 0.1	910.38	–	2.777
328.15 K, x2 = 0.2002	909.27	–	2.915
328.15 K, x2 = 0.2997	908.41	–	3.096
328.15 K, x2 = 0.3999	907.62	–	3.338
328.15 K, x2 = 0.4998	906.94	–	3.657
328.15 K, x2 = 0.5989	906.33	–	4.059
328.15 K, x2 = 0.7001	905.81	–	4.581
328.15 K, x2 = 0.8023	905.35	–	5.629
328.15 K, x2 = 0.8996	904.92	–	6.508
333.15 K, x2 = 0	908.41	–	2.581
333.15 K, x2 = 0.1	906.65	–	2.507
333.15 K, x2 = 0.2002	905.5	–	2.613
333.15 K, x2 = 0.2997	904.61	–	2.756
333.15 K, x2 = 0.3999	903.81	–	2.952
333.15 K, x2 = 0.4998	903.1	–	3.208
333.15 K, x2 = 0.5989	902.49	–	3.525
333.15 K, x2 = 0.7001	901.96	–	3.935
333.15 K, x2 = 0.8023	901.5	–	4.674
333.15 K, x2 = 0.8996	901.1	–	5.472
